Test results as given in patent US20240360107A1, “AN EIF4A INHIBITOR WITH A NOVEL MECHANISM OF ACTION” (ARIZONA BOARD OF REGENTS ON BEHALF OF THE UNIVERSITY OF …, priority 2021, published 2024).

Molecular target: eIF4A (Homo sapiens, UniProt P60842)
Test: MANT-ATP fluorescence polarization assay
Assay type: binding
Design: 6xHis with TEV protease site (N, cleaved yes); made in house; host or cells: E. coli BL21-CodonPlus
Conditions: compound 200 μM or ADP 1 mM; MANT-ATP 100 nM
Protocol: Additional biochemical testing was performed on compound 28 to investigate its mechanism of eIF4A inhibition. Initially, kinetics experiments were repeated with compound 28, and the results for compound 28 matched those of compound 1 (FIG. 5D, 4A). Upon addition of compound 28, Km and Vmax of eIF4A decreased with respect to ATP. With respect to RNA, eIF4A Km […] and Vmax remained constant. […] Fluorescence polarization (FP) assays were utilized to confirm this mechanism of inhibition by testing the ability of compound 28 to compete fluorescent substrates off eIF4A. First, an FP assay was performed with MANT-ATP, a fluorescent, non-hydrolysable ATP analog, as the substrate.
MANT-ATP fluorescence polarization assay. Recombinant eIF4A (15 μM) was added to a low-volume black 384 well plate (Greiner). Yeast RNA (0.25 mg/mL) was added along with compound (200 μM) or ADP (1 mM) and the plate was incubated for 20 min. MANT-ATP was added (100 nM) and the plate was incubated for 30 min before fluorescence polarization was read at 355 nm:448 nm (Ex:Em) on a SpectraMax iD5 plate reader (Molecular Devices).

eIF4A, sequence (P60842 whole entry): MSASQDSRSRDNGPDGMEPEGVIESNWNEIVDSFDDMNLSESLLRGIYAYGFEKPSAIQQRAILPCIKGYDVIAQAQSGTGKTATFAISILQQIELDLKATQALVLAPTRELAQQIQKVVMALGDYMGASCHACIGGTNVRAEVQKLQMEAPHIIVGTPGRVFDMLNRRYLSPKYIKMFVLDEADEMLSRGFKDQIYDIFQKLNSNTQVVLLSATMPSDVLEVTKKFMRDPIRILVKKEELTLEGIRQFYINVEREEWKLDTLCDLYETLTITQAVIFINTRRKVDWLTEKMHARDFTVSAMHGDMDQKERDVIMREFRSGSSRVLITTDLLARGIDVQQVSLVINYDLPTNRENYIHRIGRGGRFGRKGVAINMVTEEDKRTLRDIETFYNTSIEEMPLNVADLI

## Nc1ncnc2c1ncn2[C@@H]1O[C@H](COP(=O)(O)OP(=O)(O)O)[C@@H](O)[C@H]1O [ADP, reference compound]
  competition of MANT-ATP off eIF4A: able to compete MANT-ATP out of its binding pocket
